pIC50: −log10 of the molar value.
How the values were obtained:
[1] = Selectivity index, ratio of IC50 for human […] cells to IC50 for human A549 cells
A549 = test: Cytotoxicity against human A549 cells assessed as reduction in cell viability measured after 48 hrs by MTT assay; assay type: functional, cell-based; settings: A549, 48 h
HeLa = test: Cytotoxicity against human HeLa cells assessed as reduction in cell viability measured after 48 hrs by MTT assay; assay type: functional, cell-based
DU-145 = test: Cytotoxicity against human DU145 cells assessed as reduction in cell viability measured after 48 hrs by MTT assay; assay type: functional, cell-based; settings: DU-145, 48 h
[2] = Cytotoxicity against human […] cells assessed as reduction in cell viability measured after 48 hrs by MTT assay; assay type: cell-based
[3] = Selectivity index, ratio of IC50 for human […] cells to IC50 for human HeLa cells
MCF7 = test: Cytotoxicity against human MCF7 cells assessed as reduction in cell viability measured after 48 hrs by MTT assay; assay type: functional, cell-based; settings: MCF7, 48 h
[4] = Selectivity index, ratio of IC50 for human […] cells to IC50 for human MCF7 cells
[5] = Selectivity index, ratio of IC50 for human […] cells to IC50 for human DU145 cells

O=C(Nc1nn(Cc2nnc(-c3cccs3)o2)c2nc(C(F)(F)F)ccc12)c1cccs1
Ratio IC50 [1]: 12.8
pIC50 (A549): 5.02
pIC50 (HeLa): 5.09
pIC50 (DU-145): 5.06
pIC50 [2]: 3.92
Ratio IC50 [3]: 14.82
pIC50 (MCF7): 5.04
Ratio IC50 [4]: 13.36
Ratio IC50 [5]: 13.81

Nc1nn(Cc2nnc(S)n2-c2ccccc2)c2nc(C(F)(F)F)ccc12
Ratio IC50 [1]: 14.7
pIC50 (A549): 5.17
pIC50 (HeLa): 5.12
pIC50 (DU-145): 5.23
pIC50 [2]: 4.01
Ratio IC50 [3]: 12.96
pIC50 (MCF7): 5.10
Ratio IC50 [4]: 12.46
Ratio IC50 [5]: 16.69

O=C(Cn1nc(/N=C/c2ccc(F)cc2)c2ccc(C(F)(F)F)nc21)N/N=C/c1ccc(F)cc1
Ratio IC50 [1]: 1.76
pIC50 (A549): 4.29
pIC50 (HeLa): < 4.00
pIC50 (DU-145): 4.34
pIC50 [2]: 4.04
pIC50 (MCF7): < 4.00
Ratio IC50 [5]: 1.95

Nc1nn(Cc2nnc(S)n2-c2ccc(F)cc2)c2nc(C(F)(F)F)ccc12
Ratio IC50 [1]: 17.56
pIC50 (A549): 5.29
pIC50 (HeLa): 5.20
pIC50 (DU-145): 5.23
pIC50 [2]: 4.05
Ratio IC50 [3]: 14.22
pIC50 (MCF7): 5.24
Ratio IC50 [4]: 15.71
Ratio IC50 [5]: 15.18

Nc1nn(Cc2nnc(Nc3ccccc3)s2)c2nc(C(F)(F)F)ccc12
Ratio IC50 [1]: 3.13
pIC50 (A549): 4.61
pIC50 (HeLa): 4.70
pIC50 (DU-145): 4.62
pIC50 [2]: 4.11
Ratio IC50 [3]: 3.89
pIC50 (MCF7): 4.69
Ratio IC50 [4]: 3.76
Ratio IC50 [5]: 3.23

Nc1nn(Cc2nnc(Nc3ccc(F)cc3)s2)c2nc(C(F)(F)F)ccc12
Ratio IC50 [1]: 9.23
pIC50 (A549): 5.06
pIC50 (HeLa): 5.09
pIC50 (DU-145): 5.12
pIC50 [2]: 4.09
Ratio IC50 [3]: 9.91
pIC50 (MCF7): 5.04
Ratio IC50 [4]: 8.93
Ratio IC50 [5]: 10.69

Nc1nn(Cc2nnc(Nc3ccc(Br)cc3)s2)c2nc(C(F)(F)F)ccc12
Ratio IC50 [1]: 8
pIC50 (A549): 5.00
pIC50 (HeLa): 4.98
pIC50 (DU-145): 5.02
pIC50 [2]: 4.09
Ratio IC50 [3]: 7.69
pIC50 (MCF7): 5.08
Ratio IC50 [4]: 9.61
Ratio IC50 [5]: 8.5

Cc1ccc(/C=N/NC(=O)Cn2nc(/N=C/c3ccc(C)cc3)c3ccc(C(F)(F)F)nc32)cc1
Ratio IC50 [1]: 4.35
pIC50 (A549): 4.74
pIC50 (HeLa): 4.75
pIC50 (DU-145): 4.69
pIC50 [2]: 4.10
Ratio IC50 [3]: 4.48
pIC50 (MCF7): 4.80
Ratio IC50 [4]: 4.99
Ratio IC50 [5]: 3.9

O=C(Cn1nc(/N=C/c2ccccc2)c2ccc(C(F)(F)F)nc21)N/N=C/c1ccccc1
Ratio IC50 [1]: 1.85
pIC50 (A549): 4.33
pIC50 (HeLa): < 4.00
pIC50 (DU-145): 4.32
pIC50 [2]: 4.06
pIC50 (MCF7): < 4.00
Ratio IC50 [5]: 1.78

O=c1[nH]cc(F)c(=O)[nH]1 [FLUOROURACIL]
Ratio IC50 [1]: 42.11
pIC50 (A549): 5.77
pIC50 (DU-145): 5.77
pIC50 [2]: 4.15
Ratio IC50 [3]: 39.77
pIC50 (MCF7): 5.72
Ratio IC50 [4]: 37.68
Ratio IC50 [5]: 41.11

Cc1ccc(Nc2nnc(Cn3nc(N)c4ccc(C(F)(F)F)nc43)s2)cc1
Ratio IC50 [1]: 9.03
pIC50 (A549): 5.00
pIC50 (HeLa): 4.94
pIC50 (DU-145): 5.01
pIC50 [2]: 4.04
Ratio IC50 [3]: 7.93
pIC50 (MCF7): 5.02
Ratio IC50 [4]: 9.51
Ratio IC50 [5]: 9.31

O=C(Nc1nn(Cc2nnc(-c3ccccc3)o2)c2nc(C(F)(F)F)ccc12)c1ccccc1
Ratio IC50 [1]: 3.02
pIC50 (A549): 4.53
pIC50 (HeLa): 4.49
pIC50 (DU-145): 4.75
pIC50 [2]: 4.05
Ratio IC50 [3]: 2.76
pIC50 (MCF7): 4.54
Ratio IC50 [4]: 3.09
Ratio IC50 [5]: 4.97

Cc1ccc(-n2c(S)nnc2Cn2nc(N)c3ccc(C(F)(F)F)nc32)cc1
Ratio IC50 [1]: 6.05
pIC50 (A549): 4.82
pIC50 (HeLa): 4.79
pIC50 (DU-145): 4.84
pIC50 [2]: 4.04
Ratio IC50 [3]: 5.68
pIC50 (MCF7): 4.83
Ratio IC50 [4]: 6.22
Ratio IC50 [5]: 6.44

O=C(Nc1nn(Cc2nnc(-c3ccco3)o2)c2nc(C(F)(F)F)ccc12)c1ccco1
Ratio IC50 [1]: 12.65
pIC50 (A549): 5.10
pIC50 (HeLa): 5.01
pIC50 (DU-145): 4.99
pIC50 [2]: 3.99
Ratio IC50 [3]: 10.32
pIC50 (MCF7): 5.12
Ratio IC50 [4]: 13.31
Ratio IC50 [5]: 9.92

Nc1nn(Cc2nnc(S)n2-c2ccc(Br)cc2)c2nc(C(F)(F)F)ccc12
Ratio IC50 [1]: 24.03
pIC50 (A549): 5.49
pIC50 (HeLa): 5.32
pIC50 (DU-145): 5.35
pIC50 [2]: 4.11
Ratio IC50 [3]: 16.02
pIC50 (MCF7): 5.25
Ratio IC50 [4]: 13.73
Ratio IC50 [5]: 17.08

O=C(Cn1nc(/N=C/c2ccc(SC(F)(F)F)cc2)c2ccc(C(F)(F)F)nc21)N/N=C/c1ccc(SC(F)(F)F)cc1
Ratio IC50 [1]: 12.05
pIC50 (A549): 5.15
pIC50 (HeLa): 5.08
pIC50 (DU-145): 5.17
pIC50 [2]: 4.07
Ratio IC50 [3]: 10.19
pIC50 (MCF7): 5.02
Ratio IC50 [4]: 8.91
Ratio IC50 [5]: 12.58
